{"source": "patent US20230083417A1", "about": "“THERAPEUTIC COMBINATION FOR THE TREATMENT OF BRAIN ISCHEMIA AND SAID THERAPEUTIC COMBINATION FOR USE IN THE TREATMENT OF BRAIN ISCHEMIA” (Universiteit Maastricht, priority 2020, published 2023)", "key": {"[1]": {"system": "rat hippocampal brain slices", "experiment": "Rat hippocampal brain slices, OGD and re-oxygenation, cell viability by MTT", "assay_type": "cell-based", "conditions": "15 min OGD, 2 h re-oxygenation, GKT136901 0.1 μM, L-NAME 0.3 μM, BAY60-2770 0.01 μM, separately or combined at identical concentrations, vs untreated OGD", "text": "Rat Hippocampal Brain Slice Experiments. —2-3 months old adult male Sprague-Dawley rats were used. For hippocampal slices preparation and induction of oxygen deprivation and glucose deprivation (OGD), animals were decapitated and the brains were removed and transferred into ice-cold Krebs bicarbonate dissection buffer containing glucose and sucrose. Thereafter, hippocampi were dissected and sectioned in transverse slices of 250 μm. To stabilize tissue after slicing, slices were transferred to sucrose-free dissection buffer during 45 minutes at 34° C. Then, control group slices were incubated 15 minutes in a Krebs solution. Slices subjected to OGD were incubated in a Krebs buffer pre-bubbled with 95% N2/5% CO2, where 2-deoxyglucose replaced glucose. OGD period was followed by 2 h of re-oxygenation at 37° C. where slices were returned back to an oxygenated Krebs solution containing glucose^8. During the re-oxygenation period, slices were treated with 0.01 μM BAY60-2770 (BAY; sGCa), 0.1 μM GKT136901 (GKT; NOXi) and 0.3 μM L-NAME (LN; NOSi) separately and in combination at identical respective doses of: NOXi and NOSi, NOSi and sGCa, NOXi and sGCa, and NOXi, NOSi and sGCa. Cellular viability was quantified by their ability to reduce MTT. After re-oxygenation, slices were incubated with MTT (0.5 mg/ml) in Krebs bicarbonate solution for 40 minutes at 37° C. The formazan produced was solubilized by adding 200 μl dimethyl sulfoxide, giving a colored compound whose optical density was measured in an ELISA microplate reader at 540 nm^9. The results of these measurements are depicted in FIG. 2, FIG. 4, FIG. 6 and FIG. 7."}, "[2]": {"system": "C57BL/6J mice subjected to middle cerebral artery occlusion (MCAO)", "experiment": "In vivo MCAO ischemia model (1 h tMCAO), infarct volume by TTC", "conditions": "for infarct volume: i.p. 1 h after reperfusion, L-NAME 3 mg/kg, GKT136901 10 mg/kg, BAY60-2770 0.5 μg/kg; for infarct volume / infarct size, single therapy: 24 h; for infarct volume / infarct volume, subthreshold doses and triple combination: alone or combined at identical doses; for infarct volume, subthreshold doses and triple combination: 1 h post-ischemia, i.p., PTU 3 mg/kg, PPZ 1 mg/kg, riociguat 0.004 mg/kg; for infarct size, single therapy: i.p. 1 h post-reperfusion, perphenazine 3 mg/kg, PTU 9 mg/kg, riociguat 0.01 mg/kg", "procedure": "In vivo MCAO Ischemia Model. —C57BL/6J mice were subjected to middle cerebral artery occlusion (MCAO) during 1 h followed by 24 h of reperfusion. Mice were anesthetized with 1.5% isoflurane (Abbott) in a 70% N2O/30% O2 mixture. Core body temperature was maintained at 37° C. The external carotid artery was ligated and a rubber-coated 6.0 nylon monofilament (6021; Doccol) was inserted to occlude the origin of the right MCA for 60 minutes. Then, animals were re-anesthetized and the occluding monofilament was withdrawn to allow for reperfusion^10. L-NAME (NOSi, 3 mg/kg) or propylthiouracil (NOSi, 9 mg/kg), GKT136901 (NOXi, 10 mg/kg) or perphenazine (NOXi, 3 mg/kg) and BAY60-2770 (sGCa, 0.5 μg/kg) or riociguat (sGCs, 0.1 mg/kg), as well as combinations of these compounds were dissolved and vehicle or compound(s) were injected intraperitoneally (i.p.) 1 h after reperfusion. After 23 h of reperfusion animals were sacrificed and brains were quickly removed and cut in 3 2-mm thick coronal sections. The slices were stained for 10 minutes at 37° C. with 2% 2,3,5-triphenyltetrazolium chloride (TTC, Sigma-Aldrich) in PBS to visualize the infarct volume. The results of these measurements are shown in FIG. 1, FIG. 3, FIG. 5 and FIG. 9.\nBased on a repurposing strategy, already marketed compounds validated as NOX inhibitors and NOS inhibitors were selected for further pre-clinical experimentation. Similarly, an already approved sGC stimulator was included repurposed for a non-cardiovascular indication. Wildtype mice were subjected to 1 h tMCAO and subsequently treated with each compound separately, in double combination or triple for later assessment of infarct volume 24 h post-stroke (FIG. 15A-G)."}, "[3]": {"system": "mice subjected to 45 min tMCAO", "experiment": "45 min tMCAO in non-diabetic and STZ-diabetic mice, infarct size", "assay_type": "in vivo", "conditions": "i.p., GKT137831 10 mg/kg, SMTC 1 mg/kg, BAY58-2667 0.03 mg/kg, single or combined", "procedure": "Diabetes was induced in mice (6-9 weeks old) by i.p. injections of streptozotocin (STZ) (Merck Millipore, The Netherlands) dissolved in 0.5M sodium citrate buffer with a final dose of 55 mg/kg during 5 consecutive days. Blood glucose was measured daily for 7 days after the last STZ injection using a glucometer (Contor XT, Ascensia Diabetes Care, The Netherlands). Blood glucose levels higher than 12 mM 7 days after STZ injections were considered diabetic and therefore included in the study. Diabetic mice were monitored daily for any signs of welfare discomfort, and blood glucose levels were followed-up weekly (FIG. 18 (Table S2), FIG. 19 (Table S3)).\nTherefore, only the combination therapy was assessed.\nAfter animal sacrificing, brains were quickly removed and cut into four 2 mm thick coronal sections using a mouse brain slicer matrix (Zivic Instruments, The Netherlands). Brain slices were kept at 4° C. during 5 min and later stained using 2% 2,3,5-triphenyltetrazolium (TTC; Sigma-Aldrich, The Netherlands) for 15 min at room temperature in PBS to visualize the infarctions. Indirect infarct volumes were calculated by volumetry (ImageJ software, National Institutes of Health, USA) according to the following equation:\nVindirect (mm^3)=Vinfarct×(1−(Vih−Vch)/Vch)\nwhere the term (Vih−Vch) represents the volume difference between the ischemic hemisphere and the control hemisphere and (Vih−Vch)/Vch expresses this difference as a percentage of the control hemisphere."}, "[4]": {"system": "Human Brain Microvascular Endothelial Cells (HBMECs)", "experiment": "HBMEC under hypoxic conditions, cell viability by MTT (Example 5)", "assay_type": "cell-based", "conditions": "6 h hypoxia, 24 h re-oxygenation; GKT137831 0.3 μM, SMTC 0.1 μM, BAY 58-2667 0.03 μM, single or combined", "procedure": "HBME cells (Cell systems, USA) between passage 3 and 9 were cultured to ˜95% confluence using a specialized cell medium and grow factors (EGM-2 MV BulletKit, Lonza, The Netherlands) enriched with 5% fetal bovine serum (FBS; Sigma-Aldrich, The Netherlands). Before being subjected to hypoxia, HBMECs were seeded at 6×10^4 cells/ml in 12 wells-plate and incubated for 24 h at 37° C. Then, the cell medium was replaced with non-FBS containing medium (2 ml/well) followed by 6 h of hypoxia (94.8% N2, 0.2% 02 and 5% CO2) at 37° C. using the hypoxia workstations (Ruskin Invivo2 400 station, The Netherlands). […] Control cells were exposed to normoxia (75% N2, 20% O2, and 5% CO2) and enriched medium during the hypoxia period.\n24 h post-re-oxygenation, cell viability was assessed using the colorimetric MTT (3-(4,5-dimethylthiazol-2-yl)-2,5-diphenyltetrazolium bromide) assay (24). MTT solution (5 mg/ml) was added (100 μl/ml) and incubated for 2 h at 37° C. The formazan salt formed was solubilized by adding DMSO (250 μl/well) for later measuring spectrophotometrically its optical density at 540 nm."}, "[5]": {"system": "Human Brain Microvascular Endothelial Cells (HBMEC)", "experiment": "HBMEC subjected to hypoxia (OGD), cell viability by MTT (Example 3)", "assay_type": "cell-based", "conditions": "6 h hypoxia, 24 h reperfusion; GKT136901 0.1 μM, BAY58-2667 0.01 μM, STMC 0.3 μM, alone or combined", "procedure": "Human Brain Microvascular Endothelial Cells (HBMEC) Subjected to Hypoxia. —HBMEC (Cell systems, USA) between passage 3 and 9 were cultured using specialized cell medium enriched with 5% fetal bovine serum. HBMECs were seeded (6×10^4 cells/ml) in 12 wells-plates and incubated during 24 h at 37° C. Later, cell medium was replaced for non-FBS containing medium followed by 6 h of hypoxia (94.8% N2, 0.2% O2 and 5% CO2) at 37° C. using hypoxia workstations. The hypoxia period was followed by 24 h of reperfusion in presence or absence of GKT136901 (GKT, 0.1 μM; NOXi), BAY58-2667 (BAY58, 0.01 μM; sGCa) or S-methyl-1-thiocitrulline (STMC, 0.3 μM; NOSi) or a combination of the three. Control cells were exposed to normoxia (75% N2, 20% O2 and 5% CO2), normal glucose concentration and enriched medium during the hypoxia period (Basal). After 24 h reperfusion, cell viability was assessed using the colorimetric MTT assay. MTT solution (5 mg/ml) was added to each well (100 μl/ml) and incubated for 2 h at 37° C. The formazan salt formed was solubilized by adding […] DMSO and measured spectrophotometrically at 540 nm."}}, "note": "Entries after “also recorded” stand apart in the source; their conditions may differ.", "data": [{"compound": "O=C(O)CCCCN(CCc1cc(F)ccc1OCc1ccc(-c2ccc(C(F)(F)F)cc2)cc1)Cc1ccc(C(=O)O)cc1", "note": "[BAY60-2770]", "values": [{"measurement": "cell viability (MTT reduction)", "setting": "[1]", "value": "Neither the NOSi (L-NAME), nor the sGCa (BAY60) alone was able to improve cell viability"}, {"measurement": "cell viability (MTT reduction)", "setting": "[1]; listed as BAY", "value": "did not show improved cell viability"}, {"measurement": "infarct volume", "setting": "[2]", "value": "potent activity in reducing the infarct volume"}, {"measurement": "infarct volume", "setting": "[2]; listed as BAY60", "value": "reduced infarct volume"}]}, {"compound": "CN(C)c1cccc(-c2c3c(=O)n(-c4ccccc4Cl)[nH]c3cc(=O)n2C)c1", "note": "[GKT137831]", "values": [{"measurement": "infarct size 24 h post-stroke, non-diabetic mice", "setting": "[3]", "value": "no effect was detected"}, {"measurement": "cell viability, normal glucose", "setting": "[4]", "value": "no reduction was detected"}]}, {"compound": "OCCN1CCN(CCCN2c3ccccc3Sc3ccc(Cl)cc32)CC1", "note": "[PPZ, perphenazine]", "values": [{"measurement": "infarct volume, subthreshold doses and triple combination", "setting": "[2]", "value": "not able to reduce infarct volume; also recorded: no reduction of infarct volume; also recorded: without effect"}, {"measurement": "infarct size, single therapy", "setting": "[2]", "value": "significantly smaller infarct size"}]}, {"compound": "COC(=O)[C@@H](N)CCCNC(=N)N[N+](=O)[O-]", "note": "[L-NAME, N omega-Nitro-L-arginine methyl ester]", "values": [{"measurement": "cell viability (MTT reduction)", "setting": "[1]", "value": "Neither the NOSi (L-NAME), nor the sGCa (BAY60) alone was able to improve cell viability"}, {"measurement": "cell viability (MTT reduction)", "setting": "[1]; listed as LN", "value": "able to restore the cell viability of the hippocampal cells to some extent"}, {"measurement": "infarct volume", "setting": "[2]", "value": "potent activity in reducing the infarct volume"}, {"measurement": "infarct volume", "setting": "[2]; listed as LN", "value": "reduced infarct volume"}]}, {"compound": "CCCc1cc(=O)[nH]c(=S)[nH]1", "note": "[PTU, propylthiouracil]", "values": [{"measurement": "infarct volume, subthreshold doses and triple combination", "setting": "[2]", "value": "not able to reduce infarct volume; also recorded: no reduction of infarct volume; also recorded: without effect"}, {"measurement": "infarct size, single therapy", "setting": "[2]", "value": "tends to reduce"}]}, {"compound": "Cc1c2c(=O)n(-c3ccccc3Cl)[nH]c2cc(=O)n1Cc1ccccn1", "note": "[GKT136901]", "values": [{"measurement": "cell viability (MTT reduction)", "setting": "[1]; listed as GKT", "value": "able to restore the cell viability of the hippocampal cells to some extent; also recorded: able to improve cell viability"}, {"measurement": "infarct volume", "setting": "[2]", "value": "potent activity in reducing the infarct volume"}, {"measurement": "cell viability (MTT)", "setting": "[5]", "value": "only a relatively small improvement in cell viability"}]}, {"compound": "COC(=O)N(C)c1c(N)nc(-c2nn(Cc3ccccc3F)c3ncccc23)nc1N", "note": "[Rio, riociguat]", "values": [{"measurement": "infarct volume, subthreshold doses and triple combination", "setting": "[2]", "value": "not able to reduce infarct volume; also recorded: no reduction of infarct volume; also recorded: without effect"}, {"measurement": "infarct size, single therapy", "setting": "[2]", "value": "significantly smaller infarct size"}]}, {"compound": "CSC(N)=NCCC[C@H](N)C(=O)O", "note": "[SMTC, S-Methyl-L-thiocitrulline]", "values": [{"measurement": "cell viability (MTT)", "setting": "[5]", "value": "only a relatively small improvement in cell viability"}, {"measurement": "infarct size 24 h post-stroke, non-diabetic mice", "setting": "[3]", "value": "no effect was detected"}, {"measurement": "cell viability, normal glucose", "setting": "[4]", "value": "no reduction was detected"}]}, {"compound": "O=C(O)CCCCN(CCc1ccccc1OCc1ccc(CCc2ccccc2)cc1)Cc1ccc(C(=O)O)cc1", "note": "[BAY58-2667, cinaciguat]", "values": [{"measurement": "cell viability (MTT)", "setting": "[5]", "value": "lower cell viability than the control cells (Basal)"}, {"measurement": "infarct size 24 h post-stroke, non-diabetic mice", "setting": "[3]", "value": "no effect was detected"}, {"measurement": "cell viability, normal glucose", "setting": "[4]", "value": "no reduction was detected"}]}]}
